Test results: patent US20230248689A1, “PHARMACEUTICAL FORMULATIONS OF GRISEOFULVIN FOR LONG-TERM OCULAR DELIVERY” (Purdue Research Foundation, priority 2020, published 2023)

Legend:
[1] = tested on: human retinal endothelial cells (HRECs); experiment: Anti-proliferative effect on HRECs (Alamar Blue); format: cell-based; details: 100 μM GRF equivalent, 48 hours
Description: Human retinal endothelial cells (HREC) were plated in transparent 96 well plates at a density of 2500 cells per well in 100 μL of growth medium and incubated for 24 h at 37° C. The medium was replaced with the samples collected at different time points. After 48 hours incubation, 11.1 μL Alamar Blue reagent was added to each well. After 4 hours incubation, plates were centrifuged at 200 g for 5 minutes, and 50 μL supernatant was transferred to black 96 well plates. Fluorescence intensity of each well was read with excitation and emission wavelengths of 560 nm and 590 nm, respectively.

[2] = tested on: human retinal endothelial cells (HREC); experiment: Long-term proliferation assay on HRECs with release samples collected over time; format: cell-based
Description: The formulations of the present invention, i.e. microparticles (MPs) or nanoparticles (NPs) of the griseofulvin (GRF) were tested for in vitro cell study, in particular long-term proliferation assay. This study provides an estimation of in vivo effect of griseofulvin formulations. To compare the long-term antiproliferative effect on human retinal endothelial cells (HREC), time averaged proliferation inhibition index (PII) was calculated (Σ AUC/time) from the plot of % proliferation at each time vs. time. The higher the PII indicating the prolonged anti-proliferative effects on HREC.
The long-term anti-proliferation effect of GRF loaded NPs from example 3B was studied, wherein GRF-PLGA-NPs were dispersed in 0.5 mL of growth media at GRF concentration ranging from 600 μM to 1200 μM. At specific time points (1, 2, 3, 4, 5, 6, 7, 10, 15, 20, and 25 days), tubes were centrifuged at 5k rpm for 5 minutes and the supernatant was collected and stored at −80° C. Pellet was redispersed in 0.5 mL fresh media, and the incubation was continued. […]
Human retinal endothelial cells (HREC) were plated in transparent 96 well plates at a density of 2500 cells per well in 100 μL of growth medium and incubated for 24 h at 37° C. […] Fluorescence intensity of each well was read with excitation and emission wavelengths of 560 nm and 590 nm, respectively. […]

COC1=CC(=O)C[C@@H](C)[C@]12Oc1c(Cl)c(OC)cc(OC)c1C2=O [Free GRF, (2S,6′R)-7-chloro-2′,4,6-trimethoxy-6′-methyl-3H-spiro[benzofuran-2,1′-cyclohexan]-2′-ene-3,4′-dione]
inhibited proliferation of HRECs [1]: 53.5% | long-term anti-proliferative effect on HREC (in words) ([2]; release samples over the incubation period): effective only at the first time point | time averaged proliferation inhibition index (PII) ([2]; Σ AUC/time from % proliferation vs. time plot, HREC): 13.6
